Data on eight compounds can be found in patent publication US10487093B2, “Heterocyclic compounds, in particular 2-oxo-4,4,5,5,6,6,7,7-octahydrobenzoxazole derivatives, and their use as antibacterial compounds” (priority 2016, dated 2019).

One test deals with E. coli ATCC BAA-2452. Nature of the test: MIC, broth microdilution (CLSI) versus planktonic bacteria. The format is cell-based. The settings on record: Escherichia coli ATCC BAA-2452; 16-20 h; mode of three independent experiments; read-out: MIC, Ec ATCC BAA 2452. On the technique in general: Broth dilution looks for growth in wells or tubes with falling amounts of substance.
Test [1] has as its system Streptococcus pneumoniae ATCC 49619. The description is as above. The format is cell-based. As to conditions: ATCC49619; Streptococcus pneumoniae ATCC 49619; 16-20 h; mode of three independent experiments; read-out: MIC, Sp ATCC 49619.
Test [2] relates to Haemophilus influenzae ATCC 49247. Described as above. The format is cell-based. As to conditions: ATCC49247; Haemophilus influenzae ATCC 49247; 16-20 h; mode of three independent experiments; read-out: MIC, Hi ATCC 49247.
Test [3] deals with Staphylococcus aureus ATCC 29213. The test is described as above. It is filed as cell-based. The settings on record: ATCC29213; Staphylococcus aureus ATCC 29213; 16-20 h; mode of three independent experiments; read-out: MIC, Sa ATCC 29213.
The test system of test [4] is Acinetobacter baumannii NCTC 13420. The test is described as above. The format is cell-based. The settings on record: NCTC13420; Acinetobacter baumannii NCTC 13420; 16-20 h; mode of three independent experiments; read-out: MIC, Ab NCTC 13420.
The test system of test [5] is Acinetobacter baumannii ATCC 19606. Described as above. The format is cell-based. As to conditions: ATCC19606; Acinetobacter baumannii ATCC 19606; 16-20 h; mode of three independent experiments; read-out: MIC, Ab ATCC 19606.
Another test relates to E. coli MG1655. The test is described as above. It is filed as cell-based, Escherichia coli. The settings on record: Escherichia coli, MG1655, read-out: MIC, Ec MG1655 WT.
Test [6] has as its system Enterobacter cloacae NCTC 13406. Described as above. It is filed as cell-based. The settings on record: NCTC13406; Enterobacter cloacae NCTC 13406; 16-20 h; mode of three independent experiments; read-out: MIC, Ecl NCTC 13406.
The test system of test [7] is Pseudomonas aeruginosa ATCC 27853. The test is described as above. It is filed as cell-based. As to conditions: ATCC27853; Pseudomonas aeruginosa ATCC 27853; 16-20 h; mode of three independent experiments; read-out: MIC, Pa ATCC 27853.
The next test has as its system E. coli NCTC 13476. The description is as above. It is filed as cell-based. The settings on record: NCTC13476; Escherichia coli NCTC 13476; 16-20 h; mode of three independent experiments; read-out: MIC, Ec NCTC 13476.
The subject of test [8] is Escherichia coli ATCC 25922. The description is as above. The format is cell-based. The settings on record: ATCC25922; Escherichia coli ATCC 25922; 16-20 h; mode of three independent experiments; read-out: MIC, Ec ATCC 25922.
The next test relates to E. coli MG1655 S83L. It is filed as cell-based, Escherichia coli. As to conditions: compared to the isogenic parent strain E. coli MG1655; S83L mutation on DNA gyrase subunit GyrA.
For a further test, the system named is E. coli MG1655 D87G. The format is cell-based, Escherichia coli. As to conditions: compared to the isogenic parent strain E. coli MG1655; D87G mutation on DNA gyrase subunit GyrA.
In test [9] the test system is human hepatic cell line (HepG2 ATCC HB-8065). Nature of the test: Human cell viability assay (CellTiter-Glo). As to conditions: Homo sapiens, HepG2, 24 h, read-out: IC50 (μg/mL) HepG2.

In brackets after ≈: the same amount, converted by molar mass. Some results are limits rather than exact numbers.

Turning to `N#Cc1ccc2ccc(=O)n(CCN[C@H]3CC[C@H]4[C@@H](C3)OC(=O)N4c3ccc4c(n3)NC(=O)CO4)c2c1` [Compound 14, 1-(2-{[(3aS,6S,7aR)-2-oxo-3-{3-oxo-2H,3H,4H-pyrido[3,2-b][1,4]oxazin-6-yl}-octahydro-1,3-benzoxazol-6-yl]amino}ethyl)-2-oxo-1,2-dihydroquinoline-7-carbonitrile], the MIC (in the test with E. coli ATCC BAA-2452; in [1]; in test [2]; in test [3]; in test [4]; in test [5]) was under 1 µg/mL each time. Besides, the MIC (with E. coli MG1655; in test [6]; in [7]; in the test with E. coli NCTC 13476; in test [8]) was under 1 µg/mL each time. Moreover, the “Fold increase in MIC, E. coli MG1655 S83L” value in the test with E. coli MG1655 S83L is reported as 2 fold. The “Fold increase in MIC, E. coli MG1655 D87G” value in the test on E. coli MG1655 D87G was determined as 2 fold. In addition, the IC50 in test [9] is over 100 µg/mL.

`N#Cc1ccc2ccc(=O)n(CCN[C@H]3CC[C@H]4[C@@H](C3)OC(=O)N4c3ccc4c(n3)NC(=O)CO4)c2n1` [Compound 15, 8-(2-{[(3aS,6S,7aR)-2-oxo-3-{3-oxo-2H,3H,4H-pyrido[3,2-b][1,4]oxazin-6-yl}-octahydro-1,3-benzoxazol-6-yl]amino}ethyl)-7-oxo-7,8-dihydro-1,8-naphthyridine-2-carbonitrile]: the MIC in the test on E. coli ATCC BAA-2452 is 1 to 10 µg/mL (≈ 1.99 to 19.9 µM); in [1] it was under 1 µg/mL; in [2], 1 to 10 µg/mL (≈ 1.99 to 19.9 µM); in [3], under 1 µg/mL; in test [4], 1 to 10 µg/mL (≈ 1.99 to 19.9 µM); in test [5], 1 to 10 µg/mL (≈ 1.99 to 19.9 µM). In addition, the MIC with E. coli MG1655 is 1 to 10 µg/mL (≈ 1.99 to 19.9 µM); in [6], 1 to 10 µg/mL (≈ 1.99 to 19.9 µM); in test [7], 1 to 10 µg/mL (≈ 1.99 to 19.9 µM); in the test with E. coli NCTC 13476, 1 to 10 µg/mL (≈ 1.99 to 19.9 µM); in [8], under 1 µg/mL. In addition, in the test with E. coli MG1655 S83L, the “Fold increase in MIC, E. coli MG1655 S83L” value came out at 1 fold. Further, the “Fold increase in MIC, E. coli MG1655 D87G” value in the test on E. coli MG1655 D87G is given as 1 fold. For the same compound, the IC50 in test [9] fell in the range of 10 to 100 µg/mL (≈ 19.9 to 199 µM).

Take `COc1ccc2ncc(=O)n(CCN[C@H]3CC[C@H]4[C@@H](C3)OC(=O)N4c3ccc4c(n3)NC(=O)CO4)c2c1` [Compound 24, 1-(2-{[(3aS,6S,7aR)-2-oxo-3-{3-oxo-2H,3H,4H-pyrido[3,2-b][1,4]oxazin-6-yl}-octahydro-1,3-benzoxazol-6-yl]amino}ethyl)-7-methoxy-1,2-dihydroquinoxalin-2-one]: the MIC (in the test with E. coli ATCC BAA-2452; in [1]; in test [2]; in test [3]; in test [4]; in test [5]) was under 1 µg/mL each time. In addition, the MIC (in the test with E. coli MG1655; in [6]; in [7]; in the test with E. coli NCTC 13476; in test [8]) was under 1 µg/mL each time. Besides, in the test with E. coli MG1655 S83L, the “Fold increase in MIC, E. coli MG1655 S83L” value was determined as 2 fold. Besides, the “Fold increase in MIC, E. coli MG1655 D87G” value in the test on E. coli MG1655 D87G worked out at 2 fold. For the same compound, the IC50 in test [9] is over 100 µg/mL.

As for `COc1cnc2ccc(=O)n(CCN[C@H]3CC[C@H]4[C@@H](C3)OC(=O)N4c3ccc4c(n3)NC(=O)CO4)c2c1` [Compound 30, 1-(2-{[(3aS,6S,7aR)-2-oxo-3-{3-oxo-2H,3H,4H-pyrido[3,2-b][1,4]oxazin-6-yl}-octahydro-1,3-benzoxazol-6-yl]amino}ethyl)-7-methoxy-1,2-dihydro-1,5-naphthyridin-2-one], the MIC is under 1 µg/mL in the test with E. coli ATCC BAA-2452; under 1 µg/mL in test [1]; under 1 µg/mL in test [2]; under 1 µg/mL in test [3]; under 1 µg/mL in [4]; 1 to 10 µg/mL (≈ 1.97 to 19.7 µM) in [5]. Further, the MIC in the test on E. coli MG1655 is under 1 µg/mL; in test [6] it was 1 to 10 µg/mL (≈ 1.97 to 19.7 µM); in test [7] it was under 1 µg/mL; in the test on E. coli NCTC 13476, under 1 µg/mL; in test [8], under 1 µg/mL. Besides, the “Fold increase in MIC, E. coli MG1655 S83L” value in the test on E. coli MG1655 S83L was determined as 2 fold. Moreover, the “Fold increase in MIC, E. coli MG1655 D87G” value in the test with E. coli MG1655 D87G was 2 fold. The IC50 in test [9] is over 100 µg/mL.

Consider `N#Cc1ccc2ncc(=O)n(CCN[C@H]3CC[C@H]4[C@@H](C3)OC(=O)N4c3ccc4c(n3)NC(=O)CO4)c2c1` [Compound 31, 4-(2-{[(3aS,6S,7aR)-2-oxo-3-{3-oxo-2H,3H,4H-pyrido[3,2-b][1,4]oxazin-6-yl}-octahydro-1,3-benzoxazol-6-yl]amino}ethyl)-3-oxo-3,4-dihydroquinoxaline-6-carbonitrile], for which the MIC (with E. coli ATCC BAA-2452; in [1]; in test [2]; in test [3]; in test [4]; in test [5]) was under 1 µg/mL throughout. The MIC in the test on E. coli MG1655 is under 1 µg/mL; in test [6], under 1 µg/mL; in [7] it was 1 to 10 µg/mL (≈ 1.99 to 19.9 µM); with E. coli NCTC 13476 it was 1 to 10 µg/mL (≈ 1.99 to 19.9 µM); in test [8] it was under 1 µg/mL. Further, the “Fold increase in MIC, E. coli MG1655 S83L” value with E. coli MG1655 S83L is given as 1 fold. In addition, the “Fold increase in MIC, E. coli MG1655 D87G” value in the test on E. coli MG1655 D87G is listed as 2 fold. Moreover, in [9], the IC50 is over 100 µg/mL.

In the case of `COc1ccc2ncc(=O)n(CCN[C@H]3CC[C@H]4[C@@H](C3)OC(=O)N4c3ccc4c(n3)NC(=O)CO4)c2n1` [Compound 35, (3aS,6S,7aR)-6-[(2-{6-methoxy-3-oxo-3H,4H-pyrido[2,3-b]pyrazin-4-yl}ethyl)amino]-3-{3-oxo-2H,3H,4H-pyrido[3,2-b][1,4]oxazin-6-yl}-octahydro-1,3-benzoxazol-2-one], the MIC (with E. coli ATCC BAA-2452; in test [1]; in test [2]; in test [3]; in test [4]; in test [5]) was under 1 µg/mL each time. Besides, the MIC (with E. coli MG1655; in [6]; in test [7]; in the test on E. coli NCTC 13476; in test [8]) was under 1 µg/mL each time. The “Fold increase in MIC, E. coli MG1655 S83L” value with E. coli MG1655 S83L was 1 fold. Also, in the test on E. coli MG1655 D87G, the “Fold increase in MIC, E. coli MG1655 D87G” value was 2 fold. The IC50 in test [9] was over 100 µg/mL.

For the compound `COc1ccc2ccc(=O)n(CCN[C@@H]3CC[C@@H]4[C@@H](C3)OC(=O)N4c3ncc4c(n3)NC(=O)CO4)c2n1` [Compound 44, 1-(2-{[(3aR,6R,7aR)-2-oxo-3-{7-oxo-6H,7H,8H-pyrimido[5,4-b][1,4]oxazin-2-yl}-octahydro-1,3-benzoxazol-6-yl]amino}ethyl)-7-methoxy-1,2-dihydro-1,8-naphthyridin-2-one], the MIC (in the test on E. coli ATCC BAA-2452; in [1]; in [2]; in [3]; in test [4]; in test [5]) was under 1 µg/mL in each case. In addition, the MIC with E. coli MG1655 is under 1 µg/mL; in test [6] it was under 1 µg/mL; in [7], 1 to 10 µg/mL (≈ 1.97 to 19.7 µM); in the test on E. coli NCTC 13476, 1 to 10 µg/mL (≈ 1.97 to 19.7 µM); in test [8], under 1 µg/mL. Further, the “Fold increase in MIC, E. coli MG1655 S83L” value with E. coli MG1655 S83L was determined as 2 fold. In addition, the “Fold increase in MIC, E. coli MG1655 D87G” value in the test with E. coli MG1655 D87G was 2 fold. In addition, the IC50 in test [9] is over 100 µg/mL.

Take `N#Cc1cnc2ccc(=O)n(CCN[C@H]3CC[C@H]4[C@@H](C3)OC(=O)N4c3ccc4c(n3)NC(=O)CO4)c2c1` [Compound 46, 5-(2-{[(3aS,6S,7aR)-2-oxo-3-{3-oxo-2H,3H,4H-pyrido[3,2-b][1,4]oxazin-6-yl}-octahydro-1,3-benzoxazol-6-yl]amino}ethyl)-6-oxo-5,6-dihydro-1,5-naphthyridine-3-carbonitrile]: the MIC is 1 to 10 µg/mL (≈ 1.99 to 19.9 µM) in the test with E. coli ATCC BAA-2452; under 1 µg/mL in test [1]; under 1 µg/mL in [2]; under 1 µg/mL in [3]; 1 to 10 µg/mL (≈ 1.99 to 19.9 µM) in test [4]; 1 to 10 µg/mL (≈ 1.99 to 19.9 µM) in [5]. Further, the MIC is under 1 µg/mL with E. coli MG1655; under 1 µg/mL in test [6]; 1 to 10 µg/mL (≈ 1.99 to 19.9 µM) in test [7]; 1 to 10 µg/mL (≈ 1.99 to 19.9 µM) with E. coli NCTC 13476; under 1 µg/mL in test [8]. Moreover, the “Fold increase in MIC, E. coli MG1655 S83L” value with E. coli MG1655 S83L is recorded as 2 fold. In addition, in the test with E. coli MG1655 D87G, the “Fold increase in MIC, E. coli MG1655 D87G” value is 1 fold. Moreover, the IC50 in [9] was over 100 µg/mL.
